# In patent US20170211147A1, “METHOD OF PREDICTING REACTION TO SORAFENIB TREATMENT USING GENE POLYMORPHISM” (National Cancer Center, priority 2014, published 2017):
# Legend:
# [1] = system: liver cancer patients; assay: Progression-free survival with sorafenib treatment by SLC15A2 genotype (Kaplan-Meier, Cox proportional hazard model); assay type: in vivo, human
# Description: Five coding variants were identified in the SLC15A2 gene by NGS analysis, and three non-synonymous SNVs (L350F, P409S and R509K), which may cause a functional alternation in gene product, were selected so as to analyze genotypes for 233 liver cancer patients that had received sorafenib treatment over 6 weeks.
# Also, to confirm SNPs to be analyzed, 249 patients treated with sorafenib were genotyped using the MassARRAY system (Sequenom, San Diego, Calif., USA), thereby obtaining three SNP genotypes (C/C, C/T and T/T).
# Specifically, the association between generic polymorphisms and risk for progression was assessed by a Cox proportional hazard model with adjustment by stage of hepatocellular carcinoma (HCC). Also, analyses of data obtained were performed using STATA version 10.1 (Stata Corp, College Station, Tex., USA).
# [2] = system: Hep3B cell line; assay: MTT assay, cell viability after sorafenib treatment; assay type: cell-based, human; conditions: C/C genotype, sorafenib for 48 hours
# Description: (§1) First, human hepatocellular carcinoma (HCC)-derived cell lines such as Hep3B, SNU182 and PLC/PRFS cell lines were purchased from Korean Cell Line Bank (KCLB, Seoul, Republic of Korea), and genomic DNA was extracted from the cell lines derived from human HCC using a MagAttract DNA mini M48 kit (Qiagen) according to a user manual of the kit.
# (§2) Afterward, to confirm the sorafenib response in each cell line according to the SLC15A2 gene nucleotide polymorphism, each cell line was cultured in RPMI-1640 (Invitrogen, Carlsbad, Calif., USA) with 10%(v/v) fetal bovine serum (FBS) and 100 U/ml penicillin-streptomycin at 37° C. in 5% CO2. Next, for the MTT assay, cells obtained by the above-described culture were plated on 96-well plates at a density of 1×10^4 cells/well and treated with sorafenib for 48 hours in the RPMI-1640 used above.
# (§3) Then, the number of viable cells was measured by performing the MTT assay (Promega Fitchburg, Wis., USA) according to a user manual of the MTT assay.
# [3] = system: PLC/PRFS cell line; assay: as above; assay type: cell-based, human; conditions: C/T genotype
# Description: as §1, §2, §3
# [4] = system: SNU182 cell line; assay: as above; assay type: cell-based, human; conditions: SNU182, T/T genotype
# Description: as §1, §2, §3
smiles,measurement,setting,value
CNC(=O)c1cc(Oc2ccc(NC(=O)Nc3ccc(Cl)c(C(F)(F)F)c3)cc2)ccn1 [sorafenib],progression-free survival (accumulative hazard ratio),[1],2.46
same,response to sorafenib treatment,[1]; subjects with C/T or T/T genotype compared with C/C genotype,stronger response
same,proliferation,[2],dose-dependently inhibited
same,response to sorafenib compared with Hep3B cell line (C/C genotype),[3]; 48 hours,stronger response
same,proliferation,[3]; sorafenib for 48 hours,dose-dependently inhibited
same,response to sorafenib compared with Hep3B cell line (C/C genotype),[4]; 48 hours,stronger response
same,proliferation,[4]; sorafenib for 48 hours,dose-dependently inhibited
